Reference: PubChem BioAssay (NCI)
Values joined by “and” are separate entries in the source; they are usually repeats but may differ in a detail not shown here. Equal entries are not always repeated.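 Five compound concentrations were applied to cells in 96-well plates for 48 hours; endpoints were derived by simple linear interpolation of the resulting dose-response curve. GI50 marks 50% less growth. Definition used: TGI = concentration required for complete inhibition of growth.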

Key:
Assay in all cases: inhibition of tumour cell growth, NCI panel, 48 h
HCC-2998 colon = tested on: HCC-2998 colon
SF-268 CNS = tested on: SF-268 CNS
NCI-H23 lung = tested on: NCI-H23 lung
EKVX NSCLC = tested on: EKVX NSCLC
MDA-MB-435 = tested on: MDA-MB-435
MDA-MB-231 breast = tested on: MDA-MB-231 breast
SK-OV-3 ovarian = tested on: SK-OV-3 ovarian
UACC-62 melanoma = tested on: UACC-62 melanoma
NCI-H522 lung = tested on: NCI-H522 lung
NCI-H226 lung = tested on: NCI-H226 lung

Compound	TGI (HCC-2998 colon)	TGI (SF-268 CNS)	GI50 (NCI-H23 lung)	TGI (NCI-H23 lung)	GI50 (EKVX NSCLC)	TGI (MDA-MB-435)	TGI (MDA-MB-231 breast)	GI50 (SK-OV-3 ovarian)	TGI (SK-OV-3 ovarian)	GI50 (HCC-2998 colon)	GI50 (SF-268 CNS)	GI50 (UACC-62 melanoma)	TGI (UACC-62 melanoma)	TGI (EKVX NSCLC)	GI50 (MDA-MB-435)	GI50 (NCI-H522 lung)	TGI (NCI-H522 lung)	GI50 (MDA-MB-231 breast)	TGI (NCI-H226 lung)	GI50 (NCI-H226 lung)
COc1cc(Nc2nc3ccccc3nc2NS(=O)(=O)c2ccc(NC(=O)c3ccc(C)c(OC)c3)cc2)cc(OC)c1	> 100 µM and 37.7 µM and > 8.5 µM	> 100 µM	2.27 µM and 12.5 µM and 1.33 µM	17.3 µM and 58.9 µM and > 10 µM	4.62 µM and 0.935 µM	> 100 µM and 86.2 µM and > 5.19 µM	46.2 µM and > 100 µM and > 7 µM	–	–	–	–	–	–	–	–	–	–	–	–	–
O=C1NC(=O)C(c2ccccc2Cl)=C1Nc1cc(Cl)c(O)c(Cl)c1	> 25 µM	> 25 µM	–	–	> 25 µM	> 25 µM	> 25 µM	16.3 µM	> 25 µM	> 25 µM	12.1 µM	11.4 µM	> 25 µM	> 25 µM	8.78 µM	8.78 µM	> 25 µM	> 25 µM	–	–
O=c1ccs[nH]1	8.02 µM	35.4 µM	–	43.7 µM	–	31 µM	28.6 µM	–	72.5 µM	–	–	–	39.8 µM	27.2 µM	–	–	1.75 µM	–	71.6 µM	–
C#CC1(OC(C)=O)CCC2C3CC=C4C=C(OC(C)=O)CCC4(C)C3CCC21C (centres undefined)	32.9 µM	48.4 µM	–	47.1 µM	–	45.2 µM	58.3 µM	–	> 100 µM	–	–	–	44.5 µM	80 µM	–	–	34.9 µM	–	63 µM	–
COc1cccc(/C=C/[N+](=O)[O-])c1	3.51 µM	21.4 µM	3.21 µM	12.6 µM	19 µM	9.28 µM	20.8 µM	11.5 µM	23.6 µM	1.93 µM	5.64 µM	3.29 µM	12.8 µM	76.2 µM	2.69 µM	11.1 µM	23.5 µM	6.41 µM	65.3 µM	26.2 µM
COc1ccc(/C(COc2ccc3c(=O)c(-c4ccccc4)coc3c2)=N\O)cc1	9.15 µM	> 78.5 µM	19.3 µM	62.8 µM	4.94 µM	4.64 µM	18.5 µM	10.1 µM	29.5 µM	3.09 µM	6.36 µM	0.662 µM	21.2 µM	38.7 µM	2.17 µM	4.65 µM	20.6 µM	0.698 µM	89 µM	15.2 µM
Cc1ccc2c(-c3ccnc(Nc4ccccc4)n3)c(-c3ccc(F)cc3)nn2n1	22.6 µM	> 25 µM	8.25 µM	> 25 µM	6.53 µM	> 25 µM	> 25 µM	1.39 µM	> 25 µM	7.03 µM	11.1 µM	7.82 µM	> 25 µM	> 25 µM	6.83 µM	4.34 µM	13.9 µM	8.25 µM	24.2 µM	8.23 µM
Cc1ccc(Cc2cnc(NC(=O)/C=C/c3cccc(C)c3)s2)cc1	> 37.1 µM	> 100 µM	0.322 µM	> 50.1 µM	0.403 µM	0.104 µM	5.08 µM	0.85 µM	> 59.7 µM	0.296 µM	1.85 µM	0.0645 µM	25.3 µM	> 100 µM	0.0275 µM	0.151 µM	> 100 µM	0.397 µM	–	0.608 µM
COc1cc2ncn(-c3cc(O[C@@H](C)c4ccccc4Cl)c(C(N)=O)s3)c2cc1OC	> 25 µM	> 25 µM	1.57 µM	> 25 µM	6.66 µM	> 25 µM	> 25 µM	0.803 µM	> 25 µM	2.55 µM	1.61 µM	0.638 µM	> 25 µM	> 25 µM	0.146 µM	0.434 µM	6.51 µM	1.19 µM	> 19.4 µM	2.3 µM
C=C(CN1CCN(c2cccc(C(F)(F)F)n2)CC1)c1ccc(C(=O)Nc2ccccc2N)cc1	> 100 µM	31.2 µM and > 100 µM	14.1 µM and 1.8 µM	> 100 µM	24.3 µM and 2.73 µM	2.26 µM and 0.767 µM	34.2 µM and > 72.7 µM	2.55 µM and 0.634 µM	42.4 µM and 21.2 µM	9.63 µM	1.13 µM and 0.578 µM	0.97 µM and 0.51 µM	> 100 µM	> 100 µM	0.27 µM and 0.205 µM	1.11 µM and 0.896 µM	> 100 µM and 38.1 µM	4.63 µM and 1.02 µM	> 100 µM	13.4 µM and 20.9 µM
COc1cc2c(cc1OC)-c1ccc3cc4c(cc3c1N(CCCn1ccnc1)C2)OCO4	24.4 µM	53.4 µM	2.23 µM	21.3 µM	31.9 µM	16.8 µM	18.8 µM	3.84 µM	26.8 µM	10.9 µM	0.514 µM	0.67 µM	2.72 µM	> 100 µM	4.35 µM	0.565 µM	3.35 µM	3.34 µM	24.8 µM	5.52 µM
O=C(O)CCCSc1ccccc1	> 100 µM	> 100 µM	–	> 100 µM	–	> 100 µM	> 100 µM	–	> 100 µM	–	–	–	> 100 µM	> 100 µM	–	–	> 100 µM	–	> 100 µM	–
C/C(=N\Nc1cc(C)c2ccccc2n1)c1ccccn1	2.15 µM	1.71 µM	0.172 µM	8.49 µM	–	1.75 µM	1.66 µM	0.119 µM	8.38 µM	< 0.0445 µM	0.0433 µM	0.11 µM	0.631 µM	–	0.21 µM	0.0534 µM	0.319 µM	< 0.0283 µM	2.71 µM	0.225 µM
C=C1C(=O)O[C@H]2[C@H]1CC/C(COC(=O)C(=O)c1cn(C)c3ccc(Cl)cc13)=C\CC[C@@]1(C)O[C@@H]21	3.52 µM	4.56 µM	1.39 µM	3.05 µM	1.92 µM	3.13 µM	4.3 µM	3.28 µM	–	1.86 µM	1.56 µM	0.356 µM	2.08 µM	4.29 µM	1.27 µM	1.24 µM	2.68 µM	1.03 µM	3.08 µM	1.46 µM
